PMC4399250, “Characterization of HIV-1 entry inhibitors with broad activity against R5 and X4 viral strains” (Journal of Translational Medicine, 2015)
Read-outs that look alike come from different tables or passages of the source.

Assays:
HIV-1 BaL (R5) [1] = test: HIV-1 acute infection of PHA-activated PBMC, p24 ELISA, BaL strain; format: cell-based; conditions: for effect on R5 HIV-1 replication (in words): p24 day 7, concentrations tested up to 30 μM for the six compounds
CXCR4 = CXCR4 (Homo sapiens, UniProt P61073); test: Flow cytometry competition with anti CXCR4 moAbs; format: binding; conditions: PM1 cells; ND-4043 30, 10, 3 μM; AMD3100 3, 0.3, 0.03 μM
HIV-1 IIIB (X4) [2] = format: cell-based
HIV-1 IIIB (X4) [3] = test: HIV-1 acute infection of PHA-activated PBMC, p24 ELISA, IIIB strain; format: cell-based; conditions: for effect on X4 HIV-1 replication (in words): p24 day 7, concentrations tested up to 30 μM for the six compounds
influenza A virus = test: Influenza virus-like particle entry assay in MDCK cells; format: cell-based; conditions: three concentrations, bafilomycin 100 nM
PBMC = test: MTT cytotoxicity assay on PBMC; format: cell-based, human; conditions: infected PBMC
Protocol: PBMC and TZM-bl viability was measured by the MTT [3-(4,5- dimethylthiazol-2-yl)-2,5-diphenyl tetrazolium bromide; Sigma] assay. Cells were seeded in 96-well plates in three replicates and were incubated for four (TZM-bl) or six (PBMC) days with different concentrations of the compounds or DMSO alone at 0.2% as control. Then 10μl of complete medium containing MTT (0.5 mg/ml) was added to each well. After 24h incubation at 37°C, the supernatant was removed and 200μl of ethanol was added to each well to solubilize the formazan crystals. After vigorous shaking, absorbance was measured in a microplate reader at 490 nm.

HIV-1 BaL (R5) [4] = test: HIV-1 fusion assay, PM1-BaL donor and TZM-bl target cells; format: cell-based; conditions: PM1-BaL donor, TZM-bl target, 2.5% FCS
[5] = BaL (R5), infected PBMC, p24 day 7
[6] = IIIB (X4), infected PBMC, p24 day 7

Sequence of CXCR4 (P61073 whole entry): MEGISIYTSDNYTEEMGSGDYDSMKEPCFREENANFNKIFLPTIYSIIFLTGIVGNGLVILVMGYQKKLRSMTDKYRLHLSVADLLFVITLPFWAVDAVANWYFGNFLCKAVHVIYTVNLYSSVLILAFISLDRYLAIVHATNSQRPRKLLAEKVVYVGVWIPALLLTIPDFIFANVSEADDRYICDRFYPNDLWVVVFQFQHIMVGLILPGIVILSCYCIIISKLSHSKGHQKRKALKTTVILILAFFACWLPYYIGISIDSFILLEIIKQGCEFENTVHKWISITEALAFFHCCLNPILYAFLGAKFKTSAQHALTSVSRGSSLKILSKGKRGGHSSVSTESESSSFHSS

c1cc(CN2CCCNCCNCCCNCC2)ccc1CN1CCCNCCNCCCNCC1 [AMD3100]
effect on R5 HIV-1 replication (in words) (HIV-1 BaL (R5) [1]; PBMC): no effect | effect on binding of four anti-CXCR4 moAbs (CXCR4): inhibited binding of the four moAbs in a concentration-dependent manner | effect on X4-mediated fusion (in words) (HIV-1 IIIB (X4) [2]): selectively blocked entry | concentration inhibiting X4 HIV-1 replication (HIV-1 IIIB (X4) [3]; PBMC, p24 day 7, ten fold dilutions, complete inhibition for AMD3100): 0.01 µM | activity relative to ND-4043 on X4 inhibition (HIV-1 IIIB (X4) [3]; side-by-side comparison): approximately 100 fold

CO/C1=C\C(C)=C\[C@@H](C)[C@@H](O)[C@@H](C)C/C(C)=C/C=C/[C@H](OC)[C@@H]([C@@H](C)[C@@H](O)[C@H](C)[C@@]2(O)C[C@@H](O)[C@H](C)[C@@H](C(C)C)O2)OC1=O [bafilomycin A1]
effect on influenza A virus entry (influenza A virus): inhibited viral entry significantly

Cn1cc(NC(=O)c2cc(NC(=O)c3cc(NC=O)cn3C)cn2C)cc1C(=O)NCCC(=N)N [compound 4044, distamycin]
IC50 (HIV-1 BaL (R5) [1]; [5]): > 30 µM | IC75 (HIV-1 BaL (R5) [1]; [5]): >30 µM | IC90 (HIV-1 BaL (R5) [1]; [5]): > 30 µM | effect on R5 HIV-1 replication (in words) (HIV-1 BaL (R5) [1]; PBMC): not effective | effect on X4-mediated fusion (in words) (HIV-1 IIIB (X4) [2]; SupT1-IIIB donor, TZM-bl target, 2.5% FCS): did not affect | IC50 (HIV-1 IIIB (X4) [3]; [6]): > 30 µM | IC75 (HIV-1 IIIB (X4) [3]; [6]): >30 µM | IC90 (HIV-1 IIIB (X4) [3]; [6]): > 30 µM | effect on X4 HIV-1 replication (in words) (HIV-1 IIIB (X4) [3]; PBMC): not effective | CC50 (PBMC; table section BaL (R5)): 25 µM | CC50 (PBMC; table section IIIB (X4)): 30 µM | effect on R5-mediated fusion (in words) (HIV-1 BaL (R5) [4]): did not affect

Maraviroc
concentration inhibiting R5 HIV-1 replication (HIV-1 BaL (R5) [1]; PBMC, p24 day 7, ten fold dilutions, complete blockade for maraviroc): 0.1 µM | activity relative to ND-4043 on R5 inhibition (HIV-1 BaL (R5) [1]; side-by-side comparison): approximately 100 fold | effect on X4 HIV-1 replication (in words) (HIV-1 IIIB (X4) [3]; PBMC): no effect | effect on R5-mediated fusion (in words) (HIV-1 BaL (R5) [4]): selectively blocked entry
